One data set has as its system PPP2R2B. In words: RT-PCR analysis of PPP2R2B expression. It counts as cell-based, human. The note with it: DLD1 cells, 5 μM for 3 days. How it is done:
For RT-PCR, total RNA was reverse-transcribed using oligo(dT)12-18 primer (SEQ ID NO: 6)with Superscript II reverse transcriptase (Invitrogen). 100 ng of cDNA was used for PCR. The primers PPP2R2B F: 5′ […] 3′ (SEQ ID NO: 7) and PPP2R2B R: 5′ (SEQ ID NO: 8) […] 3′ were used to amplify the PPP2R2B cDNA.

The subject of a further data set is p-Myc(T58/S62). The data set can be described thus: Immunoblot analysis of Myc phosphorylation. In kind it is cell-based, human. As to conditions: DLD1 cells; for effect on rapamycin-induced Myc phosphorylation: BX912 2.5 μM or PIK90 5 μM with rapamycin 10 nM. (In general: A western blot detects proteins with antibodies after separation by electrophoresis.)
The next data set relates to SW480 cells. In words: Morphologies of SW480 cells under treatment. In kind it is cell-based, human.
Data set [1] concerns DLD1 and SW480 cells. The data set can be described thus: Cell viability of DLD1 and SW480 cells under drug combinations. It counts as cell-based, human. As to conditions: BX912 2.5 μM plus rapamycin 10 nM, 5-day cell viability assay. On the procedure:
Cell viability was measured using CellTiter-Glo™ Luminescent Cell Viability Assay (Promega).
(§1) In brief, 1000 cells were seeded in 96-well plate and the cell number was measured following manufacturer's instruction. To detect the senescence in DLD1-tet on cells, cells were treated with Dox for 48 hr and SA-β-Gal staining was performed according to the protocol of Senescence Detection kit (BioVision). Cell cycle analysis was done by DNA content quantification.

The test system of the next data set is p-AKT (S473). In words: Immunoblot analysis of AKT S473 phosphorylation. It counts as cell-based, human. As to conditions: DLD1 cells; for effect on AKT S473 phosphorylation: BX912 2.5 μM or PIK90 5 μM with rapamycin 10 nM, 48 hr.
In a further data set the test system is SW480 and DLD1 cells. In words: G2/M phase arrest by PI staining and FACS in SW480 and DLD1 cells. In kind it is cell-based, human. The note with it: BX912 2.5 μM or PIK90 with rapamycin 10 nM, 48 h. On the procedure: as §1
The cells were fixed with 70% ethanol and stained with propidium iodide (50 μg/ml) staining. The stained cells were analyzed by FACScalibur (BD Bioscience) and quantified by using CellQuest software (BD bioscience).

Data set [2] deals with DLD1 and SW480 cells. The data set can be described thus: Monolayer dense foci / colony formation of DLD1 and SW480 cells. As to conditions: BX912 2.5 μM plus rapamycin 10 nM, 2-week colony formation assay. In kind it is cell-based, human. On the procedure:
For DLD1 and HCT116 inducible cells foci formation assay, 1×10^4 cells were seeded on 6-well plate with or without treatment with Dox or rapamcycin. […]

Another data set concerns human cancers. The note with it: also with intermittent dosing schedule; cited from earlier work.
For data set [3] the following is noted: cited from earlier work.
Data set [4] relates to behavioral tasks and aggregate formation. The note with it: mouse model of HD; cited from earlier work.
Data set [5] deals with HEK-TERV cells transformed with PDK1, Myc, shPTEN or PI3K E545K. The data set can be described thus: Cell viability / proliferation of transformed HEK-TERV cells with PLK1 inhibitors. In kind it is cell-based, human.

The source of these data is patent US9249466B2, “Methods and compositions for treating cancer” (Agency for Science, Technology and Research, priority 2010, dated 2016).

“Also recorded” adds a separate entry of the source.

On to `Nc1ncn([C@H]2C[C@H](O)[C@@H](CO)O2)c(=O)n1` [5-aza-dC], for which the PPP2R2B expression entry in the data set with PPP2R2B is “re-expression of PPP2R2B”.

In the case of `Cn1c(=O)n(-c2ccc(C(C)(C)C#N)cc2)c2c3cc(-c4cnc5ccccc5c4)ccc3ncc21` [BEZ235], the Myc phosphorylation result in the data set on p-Myc(T58/S62) (BEZ 235 100 nM, 48 hr) is “induced Myc phosphorylation”.

As for `O=C(Nc1cccc(Nc2ncc(Br)c(NCCc3cnc[nH]3)n2)c1)N1CCCC1` [BX912], the morphological change result in the data set on SW480 cells was “induced a morphological change similar to that seen upon PPP2R2B re-expression”. Besides, in the data set on DLD1 and SW480 cells [1], the “loss of cell viability in combination with rapamycin” value is “synergistic loss of cell viability”. Besides, in the data set with p-AKT (S473), the “effect on AKT S473 phosphorylation” value is given as “had no much effect on AKT S473”. For the same compound, the “G2/M arrest in combination with rapamycin” value with SW480 and DLD1 cells is given as “synergized with rapamycin to induce strong G2/M arrest”. Also, the “effect on rapamycin-induced Myc phosphorylation” value with p-Myc(T58/S62) (48 hr) is given as “abolished rapamycin-induced Myc phosphorylation”. For the same compound, in the data set on DLD1 and SW480 cells [2], the “loss of cell viability in combination with rapamycin (colony formation)” value is on record as “synergistic loss of cell viability”.

Turning to `CO[C@H]1C[C@@H]2CC[C@@H](C)[C@@](O)(O2)C(=O)C(=O)N2CCCC[C@H]2C(=O)O[C@H]([C@H](C)C[C@@H]2CC[C@@H](OC(=O)C(C)(CO)CO)[C@H](OC)C2)CC(=O)[C@H](C)/C=C(\C)[C@@H](O)[C@@H](OC)C(=O)[C@H](C)C[C@H](C)/C=C/C=C/C=C/1C` [CCI 779, rapamycin 42-[2,2-bis(hydroxymethyl)propionate]], in the data set on human cancers, the growth of cancers entry is listed as “inhibit the growth of a diverse range of cancer types”. In data set [3], the water solubility entry is given as “water soluble”. For the same compound, the “behavioral performance and aggregate formation” value in data set [4] is “improved performance on 4 different behavioral tasks and decreased aggregate formation”.

Take `COc1cc2ncn(-c3cc(OCc4ccccc4C(F)(F)F)c(C(N)=O)s3)c2cc1OC` [GW843682X]: in data set [5] (HEK-PDK1 and HEK-Myc vs HEK-PMN and HEK-shPTEN cells, 4 days), the “selectivity of inhibition of proliferation / cell viability (dose-response)” value was “more selectively decrease the cell viability of PDK1 or Myc-transformed cells; also recorded: more selectively inhibit the proliferation of PDK1 or Myc-transformed HEK cells”. Also, the “growth inhibition in kinase inhibitor screen” value in data set [5] (HEK-PDK1 cells compared to HEK-vector control cells (PMN)) is given as “selective growth inhibition effect”.

As for `COc1ccc2c(c1OC)N=C(NC(=O)c1cccnc1)N1CCN=C21` [PIK90], in the data set with SW480 cells, the morphological change result was “not”. Further, the “effect on AKT S473 phosphorylation” value in the data set on p-AKT (S473) was “effectively abolished the AKT S473 phosphorylation”. Further, the “G2/M arrest in combination with rapamycin” value in the data set on SW480 and DLD1 cells was “not”. In the data set with p-Myc(T58/S62) (48 hr), the “effect on rapamycin-induced Myc phosphorylation” value is “unable to inhibit rapamycin-induced Myc phosphorylation”.

For the compound `Oc1cccc(-c2nc(N3CCOCC3)c3oc4ncccc4c3n2)c1` [PIK-103], the “AKT S473 phosphorylation” value in the data set on p-AKT (S473) (0.5 μM) was “reduced AKT 5473 phosphorylation”. Moreover, in the data set with p-Myc(T58/S62) (0.5 μM), the Myc phosphorylation result is recorded as “enhanced Myc phosphorylation”.
